In patent publication US20140343001A1, “INDOLE DERIVATIVES INHIBITORS OF ENZYME LACTATE DEHYDROGENASE (LDH)” (Universitá di Pisa, priority 2011, published 2014):
One block for each compound: values may come before it.

Columns and labels:
hLDH5 (LDH-A) = target: T1, hLDH5 (LDH-A) (Homo sapiens, UniProt P00338); test: Enzyme inhibition of human lactate dehydrogenase isoform 5; type: biochemical; conditions: ranges of values, pH 7.4; for Ki: 37° C., read-out: inhibitory activity against hLDH5 (Ki)
T1 construct: purchased LEEBIO (USA)
Procedure: The compounds described in the examples were evaluated in enzymatic assays to assess its inhibitory properties against two human isoforms of lactate dehydrogenase, hLDH5 containing solely the subunit LDH-A (LEEBIO—USA), and the hLDH1 containing only the LDH subunits-B (Sigma Aldrich, USA), in order to verify the selectivity of these compounds.
(for Ki measurements). Such assays were conducted in cells containing 200 μL of a solution comprising the reagents dissolved in phosphate buffer (KH2PO4 and K2HPO4) at pH 7.4.
IC50 values were calculated as described below. […] Seven different concentrations (in duplicate for each concentration) of compound were used to generate a concentration-response curve. […] Compound solutions were dispensed in 96-well plates (8 μL), then substrate and cofactor dissolved in buffer (152 μl) and enzyme solution (40 μl) were finally added. Dilution of the enzyme stock solution was made to allow a 10% consumption of the cofactor after 15 min. The eventual background fluorescence of the tested compounds or quenching of the NADH fluorescence by the tested compounds was subtracted. In addition to the compound test wells, each plate contained maximum and minimum controls. Assay plates were incubated at room temperature for 15 min and the final measurements were performed using Victor X3 Microplates reader (PerkinElmer®) at a fluorescence emission wavelength of 460 nm (excitation at 340 nm). IC50 were generated using the curve-fitting tool of GraphPad Prism].
The resulting data of enzymatic kinetic (the constants of Michaelis-Menten) were determined by analysis of non-linear regression.

HeLa = test: Inhibition of tumor cell growth method (a), sulforhodamine B assay; type: cell-based; conditions: Homo sapiens, 72 hours, SRB
Procedure: (§1) The plates were incubated at 37° C. in an atmosphere composed of 95% air and 5% CO2 for 72 hours. The culture medium was then removed and the cells were fixed by addition of 50 μL of a 10% solution of trichloroacetic acid in water at 4° C. in each well. The plates were incubated at 4° C. for at least one hour, after which the colorimetric assay of sulforhodamine B (SRB) was carried out to determine the amount of biomass remaining in each well as described in previously developed methodologies [Vichai, V.; Kirtikara, K. Nat. Protoc. […] Briefly, the plates were washed several times with water and dried prior to the addition of 50 μL of a solution of dye sulforhodamine B (composed by 0.057% weight/weight of sulforhodamine B in 1% acetic acid) to each well. After 30 minutes of incubation, the unbound dye was removed by washing six times with 1% acetic acid. […] After an incubation period of 30 minutes, the absorbance in each well was read at a wavelength of 510 nm in a microplate reader. The cells treated only with vehicle consisting of a 1% solution of DMSO (vehicle) were used as control of 100% of live cells in the biomass and the wells incubated with the vehicle alone (without cells) were used to determine the baseline (0%) of live biomass. The IC50 values were calculated using the software SoftMax Pro (Molecular Devices, Sunnyvale, Calif.).

MCF-7 = test: as above; type: cell-based; conditions: Homo sapiens, MCF7; MCF-7, 72 hours, SRB
Procedure: as §1

HeLa cells = test: Determination of cellular production of lactate (GC/MS); type: cell-based; conditions: 8 hours, concentrations from 50 to 200 μM, comparable or superior to 2-DeoxGlu at 10 mM
H1975 = test: Inhibition of tumor cell growth method (b), CellTiter-Glo; type: cell-based; conditions: Homo sapiens, NCI-H1975, H1975, 72 h
Text: (§2) CellTiter-Glo® Luminescent Cell Viability Assay (Promega) is a homogeneous method of determining the number of viable cells in culture based on quantitation of the present ATP, which indicates the presence of metabolically active cells. The homogeneous assay procedure involves addition of a single reagent (CellTiter-Glo® Reagent) directly to the cells, which leads to cell lysis and generation of a luminescent signal proportional to the amount of the ATP and the number of cells present in culture. The assay relies on the properties of a proprietary thermostable luciferase (Ultra-Glo® recombinant luciferase), which generates a luminescent signal.
(§3) After 72 h, a volume of CellTiter-Glo® Reagent equal to the volume of cell culture medium was added. The content was mixed for 2 min to induce cell lysis. The luminescence was recorded after further 10 min at RT in order to obtain a stable luminescent signal.
(§4) The IC50 was calculated using GraphPad Software.

A549 cells = test: as above; type: cell-based; conditions: Homo sapiens, A549, 72 h
Text: as §2, §3, §4

H226 = test: Inhibition of tumor cell growth method (a), sulforhodamine B assay; type: cell-based; conditions: Homo sapiens, NCI-H226; H226, 72 hours, SRB
Procedure: as §1

H1299 = test: as above; type: cell-based; conditions: Homo sapiens, NCI-H1299; H1299, 72 hours, SRB
Procedure: as §1

IGROV-1 = test: as above; type: cell-based; conditions: Homo sapiens; IGROV-1, 72 hours, SRB
Procedure: as §1

- IC50 (HeLa): 44 µM
- IC50 (H226): 121 µM
- IC50 (MCF-7): 124 µM
- IC50 (H1299): 141 µM
- IC50 (IGROV-1): 123 µM
- IC50 (H1975): 57 µM
- IC50 (A549 cells): 60 µM
Structure (SMILES): O=C(O)c1cc2c(C(F)(F)F)cc(-c3ccccc3)cc2n1O [1-hydroxy-6-phenyl-4-trifluoromethyl-1H-indol-2-carboxylic acid, reference compound]

- IC50 (hLDH5 (LDH-A); room temperature, read-out: inhibitory activity against hLDH5 (IC50)): 50 to 500 µM
- IC50 (HeLa): < 15 µM
- IC50 (MCF-7): < 17 µM
Structure (SMILES): COC(=O)c1cc2c(C(F)(F)F)cc(-c3ccc(Cl)cc3Cl)cc2n1O[C@@H]1O[C@H](CO)[C@@H](O)[C@H](O)[C@H]1O [Example 10, methyl 6-(2,4-dichlorophenyl)-1-(β-D-glucopyranosyl)oxy-4-(trifluoromethyl)-1H-indole-2-carboxylate]

Further lines, the compound ahead of its results:

Structure (SMILES): COC(=O)c1cc2c(C(F)(F)F)cc(-c3ccc(Cl)cc3Cl)cc2n1O [Example 8, methyl 6-(2,4-dichlorophenyl)-1-hydroxy-4-(trifluoromethyl)-1H-indole-2-carboxylate]
- Ki (hLDH5 (LDH-A)): 1 to 10 µM
- IC50 (HeLa): < 15 µM
- IC50 (MCF-7): < 17 µM
- reduction of cellular production of lactate (HeLa cells): reduce effectively cellular production of lactate
- IC50 (H1975): ≤ 31 µM
- IC50 (A549 cells): ≤ 31 µM

Structure (SMILES): CCOC(=O)c1cc2c(C(F)(F)F)cc(-c3ccccc3)cc2n1O [Example 1, ethyl 1-hydroxy-6-phenyl-4-(trifluoromethyl)-1H-indole-2-carboxylate]
- Ki (hLDH5 (LDH-A)): 1 to 10 µM
- IC50 (HeLa): < 17 µM
- IC50 (H226): < 26 µM
- IC50 (MCF-7): < 35 µM
- IC50 (H1299): < 40 µM
- IC50 (IGROV-1): < 31 µM
- reduction of cellular production of lactate (HeLa cells): reduce effectively cellular production of lactate
- IC50 (H1975): ≤ 31 µM
- IC50 (A549 cells): ≤ 31 µM

Structure (SMILES): COC(=O)c1cc2c(C(F)(F)F)cc(-c3ccccc3)cc2n1O[C@@H]1O[C@H](CO)[C@@H](O)[C@H](O)[C@H]1O [Example 3, methyl 6-phenyl-1-(β-D-glucopyranosyl)oxy-4-(trifluoromethyl)-1H-indole-2-carboxylate]
- IC50 (HeLa): < 17 µM
- IC50 (H226): < 26 µM
- IC50 (MCF-7): < 35 µM
- IC50 (H1299): < 40 µM
- IC50 (IGROV-1): < 31 µM
- reduction of cellular production of lactate (HeLa cells): reduce effectively cellular production of lactate
- IC50 (H1975): ≤ 31 µM
- IC50 (A549 cells): ≤ 31 µM
